{"source": "paper PMC7252514", "about": "(Science (New York, N.Y.), 2019)", "key": {"PgP": {"tested_on": "PgP", "conditions": "cited from earlier work"}, "[1]": {"tested_on": "PSAM^4-GlyR-expressing layer 2/3 cortical neurons", "assay_type": "cell-based, mice", "conditions": "varenicline 10 – 16 nM"}, "[2]": {"tested_on": "PSAM^4-GlyR in SNr GABAergic neurons", "assay": "Unilateral SNr silencing rotation assay in PSAM4-GlyR mice", "assay_type": "in vivo"}, "Food intake": {"assay": "Food intake", "assay_type": "in vivo, mice", "conditions": "elevated doses"}, "[3]": {"conditions": "cited from earlier work"}, "PSAM^4-5HT3 [4]": {"target": "T1, PSAM^4-5HT3 (Homo sapiens, UniProt P36544, L131G/Q139L/Y217F, form not given, species not given)", "T1 sequence (P23979 242-489, form open)": "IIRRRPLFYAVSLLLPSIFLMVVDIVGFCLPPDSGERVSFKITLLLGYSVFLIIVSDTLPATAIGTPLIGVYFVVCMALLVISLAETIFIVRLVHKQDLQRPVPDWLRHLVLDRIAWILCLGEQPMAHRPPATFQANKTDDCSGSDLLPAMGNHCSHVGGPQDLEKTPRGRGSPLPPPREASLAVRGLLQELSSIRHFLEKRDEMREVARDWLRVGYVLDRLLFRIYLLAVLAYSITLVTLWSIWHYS", "T1 sequence (P36544 23-224 L131G/Q139L/Y217F, form open)": "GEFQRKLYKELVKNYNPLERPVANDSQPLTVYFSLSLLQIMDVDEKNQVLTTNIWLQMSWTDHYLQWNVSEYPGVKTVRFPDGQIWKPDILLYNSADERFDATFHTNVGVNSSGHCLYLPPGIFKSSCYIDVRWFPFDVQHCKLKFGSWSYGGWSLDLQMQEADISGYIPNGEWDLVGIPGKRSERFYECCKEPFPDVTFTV", "assay": "Electrophysiology of PSAM4-5HT3 currents", "assay_type": "cell-based", "conditions": "off-rate"}, "α7^L131G-GlyR": {"tested_on": "α7^L131G-GlyR", "assay": "Membrane potential", "assay_type": "cell-based", "conditions": "α7L131G-GlyR versus parent channel"}, "[5]": {"tested_on": "cultured hippocampal neurons expressing PSAM^4-GlyR", "assay": "Continuous silencing of cultured hippocampal neurons expressing PSAM4-GlyR", "assay_type": "cell-based", "conditions": "varenicline 15 nM for 3 – 18 days"}, "[6]": {"tested_on": "PSAM^4-5HT3 HC-expressing layer 2/3 cortical neurons", "assay": "Depolarization of layer 2/3 cortical neurons expressing PSAM4-5HT3 HC", "conditions": "varenicline 15 nM"}, "[7]": {"tested_on": "PSAM^4-GlyR in GPi neurons", "assay": "In vivo electrophysiology of GPi neurons transduced with PSAM4-GlyR", "design": "species or system rhesus monkey", "conditions": "subcutaneous 0.1 mg/kg, versus varenicline prior to AAV transduction"}, "[8]": {"tested_on": "cultured hippocampal neuron expressing PSAM^4-5HT3", "assay": "Sustained depolarization of cultured hippocampal neurons by PSAM4-5HT3", "conditions": "continuous varenicline 15 nM exposure"}, "[9]": {"target": "α7^L131G,Q139L,Y217F-GlyR (Homo sapiens, UniProt P23415+P36544, L131G/Q139L/Y217F)", "assay": "Electrophysiological recordings from HEK-293 cells expressing PSAM4-GlyR", "assay_type": "cell-based"}, "PSAM^4-5HT3 [10]": {"target": "T1, PSAM^4-5HT3", "assay": "Membrane potential", "assay_type": "cell-based", "conditions": "endogenous ligands"}, "[11]": {"target": "α7^L131G,Q139L,Y217F-GlyR (PSAM^4-GlyR) (Homo sapiens, UniProt P36544, L131G/Q139L/Y217F)", "sequence (P36544 23-229 L131G/Q139L/Y217F)": "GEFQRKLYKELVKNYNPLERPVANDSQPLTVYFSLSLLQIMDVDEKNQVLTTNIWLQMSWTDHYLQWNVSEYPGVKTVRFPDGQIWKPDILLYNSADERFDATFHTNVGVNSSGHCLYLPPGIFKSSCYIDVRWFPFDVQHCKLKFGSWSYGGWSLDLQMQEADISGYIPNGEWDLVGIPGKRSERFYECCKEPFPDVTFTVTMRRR", "sequence (P23415 248-457 partner)": "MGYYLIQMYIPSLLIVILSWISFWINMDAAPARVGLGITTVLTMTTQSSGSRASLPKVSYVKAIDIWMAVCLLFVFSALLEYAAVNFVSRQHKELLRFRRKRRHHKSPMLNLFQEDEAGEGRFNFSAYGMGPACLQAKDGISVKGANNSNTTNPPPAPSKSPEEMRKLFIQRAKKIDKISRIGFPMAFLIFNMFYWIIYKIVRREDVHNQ", "assay": "Membrane potential", "assay_type": "cell-based"}, "α7 nAChR": {"target": "α7 nAChR (Homo sapiens, UniProt P36544)", "sequence (P36544 23-502)": "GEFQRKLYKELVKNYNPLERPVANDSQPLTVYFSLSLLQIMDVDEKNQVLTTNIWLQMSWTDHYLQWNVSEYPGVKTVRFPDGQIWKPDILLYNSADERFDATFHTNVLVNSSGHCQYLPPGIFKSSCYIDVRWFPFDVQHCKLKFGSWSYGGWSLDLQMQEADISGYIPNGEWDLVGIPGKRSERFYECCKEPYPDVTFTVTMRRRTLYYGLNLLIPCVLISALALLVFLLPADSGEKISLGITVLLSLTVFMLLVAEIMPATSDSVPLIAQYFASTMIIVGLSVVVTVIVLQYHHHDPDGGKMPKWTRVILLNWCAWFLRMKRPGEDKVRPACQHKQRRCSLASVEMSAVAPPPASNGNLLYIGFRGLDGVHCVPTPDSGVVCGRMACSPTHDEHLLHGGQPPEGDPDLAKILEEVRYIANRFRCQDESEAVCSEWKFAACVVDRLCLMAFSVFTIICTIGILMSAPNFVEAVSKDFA", "assay": "Agonist activity at α7 nAChR", "assay_type": "cell-based"}}, "data": [{"smiles": "c1cnc2cc3c(cc2n1)[C@@H]1CNC[C@H]3C1", "note": "[varenicline]", "values": [{"measurement": "PgP substrate", "setting": "PgP", "value": "not a PgP substrate"}, {"measurement": "increase of current amplitude required to fire an action potential (rheobase)", "setting": "[1]", "value": 6, "unit": "fold"}, {"measurement": "suppression of firing", "setting": "[1]", "value": "strongly suppressed firing"}, {"measurement": "reduction of input resistance", "setting": "[1]; on average", "value": 3, "unit": "fold"}, {"measurement": "time for rotation activity to return nearly to baseline", "setting": "[2]; intraperitoneal", "value": "~4", "unit": "h"}, {"measurement": "time to evident behavioral effects of silencing", "setting": "[2]; intraperitoneal", "value": "≤ 20", "unit": "min"}, {"measurement": "lowest effective dose (LED)", "setting": "[2]; intraperitoneal, onset of rotation, with amphetamine 3 mg/kg", "value": 0.1, "unit": "mg/kg"}, {"measurement": "circling after oral delivery", "setting": "[2]; oral delivery 5 μg/mL", "value": "elicited circling"}, {"measurement": "food intake", "setting": "Food intake", "value": "reduced"}, {"measurement": "brain penetrance", "setting": "[3]", "value": "excellent brain penetrance"}, {"measurement": "t-off1/2", "setting": "PSAM^4-5HT3 [4]", "value": "3.2 ± 1.3", "unit": "min"}, {"measurement": "potency enhancement", "setting": "α7^L131G-GlyR", "value": 17, "unit": "fold"}, {"measurement": "rheobase under constant exposure", "setting": "[5]", "value": "maintained elevated rheobase"}, {"measurement": "depolarization", "setting": "[6]", "value": "+17.2 ± 2.4 mV"}, {"measurement": "GPi neuron firing rate and burst firing rate", "setting": "[7]", "value": "significantly inhibited"}, {"measurement": "duration of sustained depolarization", "setting": "[8]", "value": "14 to 22", "unit": "days"}]}, {"smiles": "NCC(=O)O", "note": "[glycine]", "values": [{"measurement": "response to glycine", "setting": "[9]", "value": "did not respond"}]}, {"smiles": "CC(=O)OCC[N+](C)(C)C", "note": "[ACh, acetylcholine]", "values": [{"measurement": "potency at PSAM4-5HT3", "setting": "PSAM^4-5HT3 [10]", "value": "low potencies"}]}, {"smiles": "C[N+]1([O-])CCN(C2=Nc3cc(Cl)ccc3Nc3ccccc32)CC1", "note": "[CNO, clozapine-N-oxide]", "values": [{"measurement": "PgP substrate", "setting": "PgP", "value": "substrate for the P-glycoprotein efflux pump"}]}, {"smiles": "C[N+](C)(C)CCO", "note": "[choline]", "values": [{"measurement": "EC50", "setting": "[11]", "value": "128 ± 32", "unit": "µM"}, {"measurement": "potency at PSAM4-5HT3", "setting": "PSAM^4-5HT3 [10]", "value": "low potencies"}]}, {"smiles": "CN1C2CCCC1CC(NC(=O)c1nn(C)c3ccccc13)C2", "note": "(centres unmarked) [granisetron]", "values": [{"measurement": "agonist activity at α7 nAChR", "setting": "α7 nAChR", "value": "no agonist activity"}]}, {"smiles": "CN1[C@@H]2CC[C@H]1C[C@@H](OC(=O)c1c[nH]c3ccccc13)C2", "note": "[tropisetron]", "values": [{"measurement": "potency enhancement", "setting": "α7^L131G-GlyR", "value": 3, "unit": "fold"}]}]}
